Consider 11 molecules from PubChem BioAssay (NCI).

Common to all, as to assay: NCI tumour cell line growth inhibition, 48 h
The test system of test [1] is CCRF-CEM leukemia.
The subject of test [2] is HOP-92 NSCLC.
For test [3], the system named is HL-60(TB) leukemia.
For test [4], the system named is SK-MEL-5 melanoma.
Test [5] deals with K-562 leukemia.
Test [6] deals with SK-MEL-2 melanoma.
The test system of test [7] is OVCAR-4 ovarian.
Test [8] concerns UACC-62 melanoma.
In test [9] the test system is SW-620 colon.
Test [10] has as its system UACC-257 melanoma.
The test system of test [11] is SF-268 CNS.
Test [12] relates to HOP-62 NSCLC.
Test [13] has as its system U251 CNS.

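Test compounds were applied to cells in 96-well plates for 48 hours at 5 doses. Here, GI50 denotes the concentration required for 50% inhibition of growth. TGI is the concentration that stops growth completely.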

Take `O=C(CN1c2ccccc2Sc2ccccc21)n1cnc2ccccc21`: the TGI in test [1] is greater than 100 µM; in test [2], 93.9 µM; in [3], greater than 100 µM; in test [4], greater than 100 µM; in [5], greater than 100 µM; in [6] it was greater than 100 µM. In addition, the TGI in test [7], in test [8], in test [9], in test [10], in test [11] and in test [12] was greater than 100 µM throughout. For the same molecule, in test [13], the TGI was greater than 100 µM.
Consider `CC[n+]1c(/C=C/c2ccc(N(CCCl)CCCl)cc2)ccc2cc(Br)ccc21`, for which the GI50 was 304 µM in test [1]; 92.7 µM in test [2]; 86.2 µM in test [3]; 135 µM in test [4]; 125 µM in [5]; 95.8 µM in test [10]. Besides, the GI50 in test [12] was 954 µM. Also, the TGI was 1.28 µM in test [6]; 7.98 µM in test [7]; 7.55 µM in test [8]; 14.7 µM in test [9]; 4.11 µM in test [13].
Regarding `O=C1c2ccccc2-c2ccc(N(Cc3ccc(Br)cc3)Cc3ccc(Br)cc3)cc21`, the TGI is 46.2 µM in test [1]; greater than 100 µM in test [2]; 46.8 µM in test [3]; greater than 100 µM in test [4]; greater than 100 µM in [5]; greater than 100 µM in [6]. The TGI in test [7], in test [8], in test [9], in test [10], in [11] and in test [12] was greater than 100 µM each time. The TGI in test [13] was greater than 100 µM.
Consider `COC1(CCO)CC=CCC1(CCO)OC` (stereo not given), for which the TGI in [1], in test [2], in test [3], in test [4], in test [5] and in test [6] was greater than 100 µM throughout. Besides, the TGI in test [7], in test [8], in [9], in [10], in [11] and in test [12] was greater than 100 µM throughout.
On to `CN(C)c1ccc(C=Nc2ccc(-c3nc4ccccc4o3)cc2)cc1`, for which the TGI in test [2] is greater than 100 µM; in [3], 69.1 µM; in [4], 29.8 µM; in test [5] it was greater than 100 µM; in test [6] it was 83.1 µM; in test [7], greater than 100 µM. The TGI in test [8] was greater than 100 µM; in test [9] it was greater than 100 µM; in test [10], 72.5 µM; in test [11], greater than 100 µM; in test [12] it was greater than 100 µM; in test [13] it was greater than 100 µM.
In the case of `CSc1nc2ccccc2c(=O)n1-c1cccc(C)c1`, the TGI in test [1] was greater than 100 µM; in test [2], greater than 100 µM; in test [3], 9.77 µM; in test [4], 66.2 µM; in [5], greater than 100 µM; in [6], greater than 100 µM. For the same molecule, the TGI in [7], in [8], in test [9], in test [10], in test [11] and in test [12] was greater than 100 µM each time. The TGI in [13] is greater than 100 µM.
In the case of `CCCNc1c(Cl)cc(Cl)c2[nH]c3ccccc3c(=O)c12`, the TGI in test [1] is greater than 100 µM; in test [2], 35 µM; in test [3], 47.6 µM; in [4], greater than 100 µM; in test [5], greater than 100 µM; in [6] it was greater than 100 µM. The TGI in [7], in [8], in [9], in [10], in test [12] and in test [13] was greater than 100 µM in each case.
Take `CCC1c2[nH]c3ccccc3c2C[C@H]2C(=O)NC(Cc3ccccc3)C(=O)N12` (stereo not given in full): the TGI in [2] is 72.8 µM; in [3], 47.8 µM; in test [4], 35.5 µM; in test [5] it was greater than 100 µM; in [6], 41.4 µM; in [7], greater than 100 µM. The TGI in [8] is 38.8 µM; in test [9], greater than 100 µM; in test [10], 49.6 µM; in test [11] it was 66.3 µM; in test [12], greater than 100 µM; in test [13] it was 56.3 µM.
Turning to `Cc1[nH]c2ncn(N)c(=N)c2c1Cc1ccccc1`, the TGI in test [1] was greater than 100 µM; in test [2], 87.8 µM; in [3], greater than 100 µM; in [4], greater than 100 µM; in test [5], greater than 100 µM; in test [6], greater than 100 µM. Also, the TGI in [7], in test [8], in test [9], in test [10], in test [12] and in [13] was greater than 100 µM throughout.
As to `COc1cc(O)c2c(=O)cc(C3(OC(C)=O)C=CC(OC4OC(CO)C(O)C(O)C4O)C=C3)oc2c1` (stereo not given), the TGI in test [1], in [2], in test [3], in test [4], in test [5] and in test [6] was greater than 100 µM each time. In addition, the TGI in [7], in [8], in test [9], in [10], in test [12] and in test [13] was greater than 100 µM throughout.
For the molecule `COC(=O)c1c(OC(C)=O)ccc2c1c1c(n2Cc2ccccc2)C(=O)c2ccccc2C1=O`, the TGI in test [1] was 68.6 µM; in test [2], 39.8 µM; in test [3], 57.2 µM; in [4], 28.1 µM; in test [5] it was 87.3 µM; in [6], 36.2 µM. Further, the TGI turned out to be 74.2 µM in [7]; 48.8 µM in test [8]; 26.8 µM in [10]; 78.1 µM in [11]; 44.5 µM in [12]; 42.4 µM in test [13].
